Source: PubChem BioAssay (NCI)
Several values for one entry are separate records, joined by “and”; a condition that tells them apart may be missing. Equal values may be shown once.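 All cell lines were grown in 96-well plates and treated with compound for 48 hours. GI50 = concentration required for 50% inhibition of growth. At the TGI there is no net growth.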 *1 amine or outer side, *2 acyl side, *3 side chain or, on linkers, in order; H or OH if unused. Where a SMILES comes first, the peptide text is derived from it. Bridges are numbered along the chain shown (N, C = ends). Roman numbers before positions name the chains, in order. [ ]: non-standard residue; d: D form. Actinocin(9to1) = Cc1c2oc3c(C)ccc(C(=O)[*:1])c3nc-2c(C(=O)[*:2])c(N)c1=O; NMeV = CN[CH](C(=O)O)C(C)C; Sar = CNCC(=O)O

Columns and labels:
Experiment in all cases: inhibition of tumour cell growth, NCI panel, 48 h
BT-549 breast = test system: BT-549 breast
DU-145 prostate = test system: DU-145 prostate
HCC-2998 colon = test system: HCC-2998 colon
HOP-92 NSCLC = test system: HOP-92 NSCLC
MDA-N = test system: MDA-N
SN12C renal = test system: SN12C renal
UACC-62 melanoma = test system: UACC-62 melanoma
LOX IMVI melanoma = test system: LOX IMVI melanoma
HOP-62 NSCLC = test system: HOP-62 NSCLC
OVCAR-8 ovarian = test system: OVCAR-8 ovarian
T-47D breast = test system: T-47D breast

Row | Compound | TGI (BT-549 breast) | TGI (DU-145 prostate) | TGI (HCC-2998 colon) | TGI (HOP-92 NSCLC) | TGI (MDA-N) | TGI (SN12C renal) | TGI (UACC-62 melanoma) | TGI (LOX IMVI melanoma) | TGI (HOP-62 NSCLC) | TGI (OVCAR-8 ovarian) | TGI (T-47D breast) | GI50 (BT-549 breast) | GI50 (HCC-2998 colon) | GI50 (HOP-92 NSCLC) | GI50 (LOX IMVI melanoma) | GI50 (OVCAR-8 ovarian) | GI50 (SN12C renal) | GI50 (UACC-62 melanoma) | GI50 (T-47D breast)
1 | O=C(COc1ccc(OCC(=O)N2C(=O)CC(=O)N(c3ccc(Cl)cc3)C2=S)cc1)N1C(=O)CC(=O)N(c2ccc(Cl)cc2)C1=S | 87.8 µM | > 100 µM | > 100 µM | 70.4 µM | 97.2 µM | > 100 µM | 60.5 µM | – | – | – | – | – | – | – | – | – | – | – | –
2 | O=P1(N2CCOCC2)OCCO1 | – | > 100 µM | > 100 µM | > 100 µM | > 100 µM | > 100 µM | > 100 µM | > 100 µM | – | – | – | – | – | – | – | – | – | – | –
3 | CC(C)(C)C1CCC2c3c([nH]c4ccccc34)C3C(=O)N(c4ccc(C#N)cc4)C(=O)C3C2C1 (centres undefined) | 65.5 µM | 35.7 µM | 11.1 µM | 22.6 µM | 26.9 µM | 21.4 µM | – | 34.6 µM | 31.2 µM | 45.6 µM | – | – | – | – | – | – | – | – | –
4 | COc1ccc(-n2c(=O)c3[nH]c(=S)[nH]c3n(-c3ccc(OC)cc3)c2=S)cc1 | > 100 µM | > 100 µM | > 100 µM | > 100 µM | – | > 100 µM | > 100 µM | > 100 µM | > 100 µM | > 100 µM | > 100 µM | – | – | – | – | – | – | – | –
5 | C#CC[C@@]12CC(=O)C[C@@H]1CCC1(C2)OCCO1 (tested in a mixture with another compound) | – | – | > 100 µM | > 100 µM | – | > 100 µM | > 100 µM | > 100 µM | > 100 µM | > 100 µM | – | – | – | – | – | – | – | – | –
6 | NS(=O)(=O)c1nc(S(=O)(=O)O)c2[nH]cnc2n1 | > 100 µM | – | – | > 100 µM | > 100 µM | > 100 µM | > 100 µM | > 100 µM | > 100 µM | > 100 µM | > 100 µM | – | – | – | – | – | – | – | –
7 | COc1ccc(C#Cn2nnc3ccccc32)cc1 | > 100 µM | > 100 µM | 82 µM | > 100 µM | > 100 µM | > 100 µM | > 100 µM | > 100 µM | > 100 µM | > 100 µM | – | – | – | – | – | – | – | – | –
8 | CC[C@@]1(O)C(=O)OCc2c1cc1n(c2=O)Cc2c-1nc1ccc(O)cc1c2[Si](C)(C)C(C)(C)C | 1.17 µM | 0.0142 µM | 0.401 µM | 2.31 µM | 4.63 µM | < 0.0233 µM | 0.164 µM | 0.163 µM | 1.49 µM | > 42.3 µM | – | – | – | – | – | – | – | – | –
9 | O=C1c2cc(Cc3ccccc3)c(=O)c(Cc3ccccc3)cc2C(=O)c2cc(Cc3ccccc3)c(=O)c(Cc3ccccc3)cc21 | > 100 µM | > 100 µM | > 100 µM | > 100 µM | > 100 µM | > 100 µM | – | > 100 µM | > 100 µM | > 100 µM | – | – | – | – | – | – | – | – | –
10 | c1nc(NCCc2cnc[nH]2)c2[nH]cnc2n1 | > 100 µM | > 100 µM | – | > 100 µM | > 100 µM | > 100 µM | > 100 µM | > 100 µM | > 100 µM | > 100 µM | > 100 µM | – | – | – | – | – | – | – | –
11 | CN1CCN(Cc2c[nH]c3c2C(=O)c2c(c(O)c4ccccc4c2O)C3=O)CC1 | 34.5 µM | – | 23.3 µM | 21.8 µM | – | 21.9 µM | 31.6 µM | 3.8 µM | – | 26 µM | – | 18.6 µM | 11.2 µM | 7.09 µM | 1.92 µM | 6.34 µM | 10.3 µM | 16.5 µM | –
12 | COC(C/C(=C/CO[Si](C(C)C)(C(C)C)C(C)C)C(=O)N(COCC[Si](C)(C)C)c1ccccc1I)OC | – | > 100 µM | > 100 µM | > 100 µM | > 100 µM | > 100 µM | 50.7 µM | 37.8 µM | > 100 µM | > 100 µM | > 100 µM | – | – | – | – | – | – | – | –
13 | COc1ccccc1-n1c(=O)n(C)c(=O)n1C(C)(C)C | > 100 µM | > 100 µM | > 100 µM | – | > 100 µM | > 100 µM | > 100 µM | > 100 µM | – | > 100 µM | > 100 µM | – | – | – | – | – | – | – | –
14 | Cc1c2oc3c(C)ccc(C(=O)NC4C(=O)NC(Cc5ccccc5)C(=O)N5CCCC5C(=O)N(C)CC(=O)N(C)C(C(C)C)C(=O)OC4C)c3nc-2c(C(=O)NC2C(=O)NC(Cc3ccccc3)C(=O)N3CCCC3C(=O)N(C)CC(=O)N(C)C(C(C)C)C(=O)OC2C)c(N)c1=O (centres undefined) (I: TFP[Sar][NMeV] / II: TFP[Sar][NMeV]; ester I:1-I:C, II:1-II:C; linker I:N-II:N via Actinocin(9to1); configuration not given here) | 0.0135 µM | – | – | – | 0.0442 µM | – | 0.00232 µM | – | 0.102 µM | 1.53 µM | 0.0647 µM | – | – | – | – | – | – | – | –
15 | N#Cc1nc2cc(Cl)ccc2nc1N1CCN(c2ccc([N+](=O)[O-])cc2)CC1 | > 100 µM | > 100 µM | > 100 µM | – | > 100 µM | > 100 µM | > 100 µM | – | > 100 µM | > 100 µM | > 100 µM | – | – | – | – | – | – | – | –
16 | Cc1cc(C)c2c(c1)CC1(Cc3cc(C)c(C)cc3C1=O)C2=O (centres undefined) | > 100 µM | > 100 µM | > 100 µM | > 100 µM | – | > 100 µM | > 100 µM | > 100 µM | – | > 100 µM | > 100 µM | – | – | – | – | – | – | – | –
17 | CSC(SC)=C(C#N)C(=O)Nc1cccc(Cl)c1 | > 100 µM | – | > 100 µM | 55.6 µM | > 100 µM | > 100 µM | > 100 µM | > 100 µM | > 100 µM | > 100 µM | – | – | – | – | – | – | – | – | –
18 | O=C(O)CCC(=O)OCN1C(=O)C2C3C=CC(C2C1=O)C1C2C(=O)N(COC(=O)CCC(=O)O)C(=O)C2C31 (centres undefined) | – | – | > 100 µM | > 100 µM | – | > 100 µM | > 100 µM | > 63 µM | > 100 µM | > 100 µM | – | – | – | – | – | – | – | – | –
19 | CCC1(O)CC(OC2CC(N(C)C)C(OC3CC(O)C(OC4OC(C)C(=O)C=C4N)C(C)O3)C(C)O2)c2c(cc3c(c2O)C(=O)c2c(O)cccc2C3=O)C1C(=O)OC (centres undefined) | – | 1.7 µM and 1.71 µM | 0.0824 µM and 0.0294 µM | 1.41 µM and 2.8 µM | 0.207 µM and 0.139 µM | 1.51 µM and 2.29 µM | 0.17 µM and 0.0324 µM | 1.48 µM and 1.56 µM | 1.14 µM and 0.344 µM | 1.59 µM and 1.32 µM | 0.657 µM and 1.79 µM | – | – | 0.0377 µM | – | – | 0.0924 µM | – | 0.0221 µM
20 | Cc1cc2[nH]c3c(C#N)c(-c4ccccc4)c(N=Nc4ccc(F)cc4)c(=O)n3c2cc1C | > 100 µM | – | > 100 µM | – | > 100 µM | > 100 µM | – | > 100 µM | > 100 µM | – | > 100 µM | – | – | – | – | – | – | – | –
21 | CN(Cc1cnc2nc(N)nc(N)c2n1)c1ccc(C(=O)NC23CC4CC(CC(C4)C2)C3)cc1 | 31.1 µM | 38.1 µM | – | – | – | 56.8 µM | 19.3 µM | 53 µM | 28.2 µM | 19.9 µM | 39 µM | – | – | – | – | – | – | – | –
